ChEMBL document CHEMBL6134773, “Metal-free synthesis of N-fused quinazolino-quinazoline-diones as a MALAT1 RNA triple helix intercalator” (RSC Med Chem, 2025)
pEC50, pIC50: −log10 of the molar value. Calls of active or inactive are those of the source. The calls are words filed in the database; no cut-off is given here.

Legend:
[1] = biological target: MALAT1 triple helix RNA; assay: Binding affinity to MALAT1 triple helix RNA (unknown origin) by fluorescence-based screening assay; format: nucleic-acid assay
[2] = tested on: MCF7; assay: Cytotoxicity against human MCF7 cells assessed as cell viability incubated for 48 hrs; format: functional, cell-based; settings: MCF7, 48 h
[3] = tested on: DNA; assay: Binding affinity to dsDNA (unknown origin) assessed as DNA intercalation by measuring change in fluorescence intensity by fluorescence-based screening assay; format: nucleic-acid assay
[4] = tested on: SK-OV-3; assay: Cytotoxicity against human SK-OV-3 cells; format: functional, cell-based
[5] = biological target: DNA; assay: Binding affinity to dsDNA (unknown origin) by fluorescence-based screening assay; format: nucleic-acid assay
[6] = tested on: MALAT1 triple helix RNA; assay: Binding affinity to MALAT1 triple helix RNA (unknown origin) assessed as […] by measuring conformational change at 2.5 to 5.0 uM at 25 to 65 degreeC by temperature dependent CD analysis; format: nucleic-acid assay; settings: dose 2.5-5 µM
[7] = tested on: MALAT1 triple helix RNA; assay: Binding affinity to MALAT1 triple helix RNA (unknown origin) assessed as RNA intercalation by measuring change in fluorescence intensity by fluorescence-based screening assay; format: nucleic-acid assay
[8] = tested on: HeLa; assay: Cytotoxicity against human HeLa cells; format: functional, cell-based
[9] = tested on: L929; assay: Cytotoxicity against mouse L929 cells; format: toxicity, cell-based

`N=C(N)c1ccc(-c2ccc(-c3ccc(C(=N)N)cc3)o2)cc1` [FURAMIDINE] gave a pEC50 [1] of 6.22 and a pIC50 [2] of 4.05.
`COC(=O)c1ccc(Cn2c(=O)c3ccccc3n3c(=O)c4ccccc4nc23)cc1` was tested, and the deltaFI [3] was 0.426.
In the case of `N#Cc1ccc(Cn2c(=O)c3ccccc3n3c(=O)c4ccccc4nc23)cc1`, the deltaFI [3] was 0.172.
`O=c1c2ccccc2n2c(=O)c3ccccc3nc2n1Cc1cccc2ccccc12` gave a deltaFI [3] of 0.014.
For `O=c1c2ccccc2n2c(=O)c3ccccc3nc2n1CCCn1c(=O)c2ccccc2n2c(=O)c3ccccc3nc12`, the pIC50 [4] was 5.10, the pEC50 [5] was 5.85 and the Activity [6] was “Active”. The deltaFI [3] was 1, the deltaFI [7] was 1 and the pEC50 [1] was 5.96. The pIC50 [8] was 4.20 and the Activity [9] was “Non-toxic”.
`COc1cccc2c1C(=O)c1c(O)c3c(c(O)c1C2=O)C[C@@](O)(C(=O)CO)C[C@@H]3O[C@H]1C[C@H](N)[C@H](O)[C@H](C)O1` [DOXORUBICIN] gave a pIC50 [4] of 6.27.
Molecule `O=c1c2ccccc2n2c(=O)c3ccccc3nc2n1Cc1cccc(C(F)(F)F)c1` has a pEC50 [5] of 6.00, a deltaFI [3] of 0.76 and a deltaFI [7] of 0.504. It also gave a pEC50 [1] of 6.10.
`O=c1c2ccccc2n2c(=O)c3ccccc3nc2n1Cc1ccc(OC(F)(F)F)cc1` gave a deltaFI [3] of 0.29.
In the case of `O=c1c2ccccc2n2c(=O)c3ccccc3nc2n1Cc1ccc([N+](=O)[O-])cc1`, the deltaFI [3] was 0.079.
Work on `O=c1c2ccccc2n2c(=O)c3ccccc3nc2n1-c1ccc(C(F)(F)F)cc1` yielded a deltaFI [3] of 0.084.
